Data: patent US9850247B2 (Almac Discovery Limited, priority 2013, dated 2017)

Molecular target: T1, Wee-1 kinase (Homo sapiens, UniProt P30291)
T1 construct: purchased Invitrogen PV3817
Assay: Measurement of Wee-1 kinase activity (ADP-Glo luminescent kit)
Type: biochemical
Experimental: Method 1: Measurement of Wee-1 Kinase Activity
In the measurement of Wee-1 activity, a commercial peptide Poly(Lys Tyr (4:1)) hydrobromide was purchased from Sigma Aldrich and used as the substrate. Activated Wee-1 kinase was purchased from Invitrogen (PV3817) and an ADP-Glo luminescent kit was purchased from Promega.
All reactions took place in […] volumes in reaction buffer containing 40 mM Tris-HCl and 20 mM magnesium chloride, supplemented with 0.1 mg/mL bovine serum albumin and 2 mM DTT. Compounds were serially diluted in buffer and 5 μL of each concentration pipetted into a white 384 well plate (Sigma Aldrich M6186). A 5 μL aliquot of the Wee-1 enzyme was added to each well and the plate centrifuged for 1 min to ensure mixing of the enzyme and inhibitor.
The plate was incubated at room temperature for 30 minutes before the addition of 2.0 μg/mL of substrate and 30 μM ATP in a 5 μL aliquot. The plate was centrifuged for one minute and incubated for 1 h at RT.
15 µL of ADP-Glo stop reagent was added to each well to quench the reaction and deplete unconverted ATP. The plate was incubated for a further 40 min in the dark at RT.
30 μL of ADP-Glo kinase detection reagent was added to each well, converting ADP to ATP, catalysing the generation of luciferin by luciferase. The plate was shaken for 1 min, and incubated in the dark for an additional hour.
Luminescence from each well was detected using the Biotek Synergy4 HD plate reader and the percentage inhibition of kinase activity calculated for each inhibitor tested. Positive (kinase only) and negative (no kinase) controls were added to each plate to ensure specific interaction of kinase and inhibitor. The IC50 concentration for each inhibitor was calculated by plotting the percentage kinase inhibition against concentration of inhibitor and the curve generated by non-linear regression fitting.

T1 sequence (P30291 whole entry): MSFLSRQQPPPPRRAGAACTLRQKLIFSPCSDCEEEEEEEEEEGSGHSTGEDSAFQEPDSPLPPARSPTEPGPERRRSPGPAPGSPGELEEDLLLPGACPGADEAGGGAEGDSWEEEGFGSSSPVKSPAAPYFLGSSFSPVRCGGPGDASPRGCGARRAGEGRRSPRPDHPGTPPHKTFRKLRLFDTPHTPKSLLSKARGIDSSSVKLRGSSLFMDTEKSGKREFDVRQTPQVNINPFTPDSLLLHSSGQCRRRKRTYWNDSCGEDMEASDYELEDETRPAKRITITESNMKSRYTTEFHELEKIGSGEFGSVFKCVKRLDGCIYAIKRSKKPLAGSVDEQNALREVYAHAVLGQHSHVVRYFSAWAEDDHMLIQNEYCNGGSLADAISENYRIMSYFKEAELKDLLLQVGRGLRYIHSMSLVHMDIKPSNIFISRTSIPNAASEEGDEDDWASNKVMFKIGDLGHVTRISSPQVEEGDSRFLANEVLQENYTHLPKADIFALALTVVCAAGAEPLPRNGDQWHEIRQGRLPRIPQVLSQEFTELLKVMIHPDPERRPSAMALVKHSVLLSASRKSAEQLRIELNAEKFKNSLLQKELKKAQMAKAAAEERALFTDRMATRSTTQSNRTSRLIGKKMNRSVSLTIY

| Compound | IC50 [nM] |
| --- | --- |
| COc1ccc(CN2CN(c3c(Cl)cccc3Cl)C(=O)c3cnc(Nc4ccc(N5CCNCC5)cc4)nc32)cc1 [Example 8, 3-(2,6-Dichlorophenyl)-1-(4-methoxybenzyl)-7-((4-(piperazin-1-yl)phenyl)amino)-2,3-dihydropyrimido[4,5-d]pyrimidin-4(1H)-one] | ≥ 100 |
| CN1CN(c2c(Cl)cccc2Cl)C(=O)c2cnc(Nc3ccc(N4CC5COCC(C4)N5C)cc3)nc21 [Example 71, 3-(2,6-dichlorophenyl)-1-methyl-7-((4-(9-methyl-3-oxa-7,9-diazabicyclo[3.3.1]nonan-7-yl)phenyl)amino)-2,3-dihydropyrimido[4,5-d]pyrimidin-4(1H)-one] | 10 to 100 |
| C[C@@H]1CN(c2ccc(Nc3ncc4c(n3)N(C)CN(c3c(Cl)cccc3Cl)C4=O)cc2F)CCN1C [Example 47, (R)-3-(2,6-dichlorophenyl)-7-((4-(3,4-dimethylpiperazin-1-yl)-3-fluorophenyl)amino)-1-methyl-2,3-dihydropyrimido[4,5-d]pyrimidin-4(1H)-one] | 10 to 100 |
| COCc1cc(Nc2ncc3c(n2)N(C)CN(c2c(Cl)cccc2Cl)C3=O)ccc1N1CCN(C)CC1 [Example 69] | 10 to 100 |
| C[C@@H]1CN[C@@H](C)CN1c1ccc(Nc2ncc3c(n2)N(C)CN(c2ccccc2Cl)C3=O)cc1F [Example 110, 3-(2-chlorophenyl)-7-((4-((2R,5S)-2,5-dimethylpiperazin-1-yl)-3-fluorophenyl)amino)-1-methyl-2,3-dihydropyrimido[4,5-d]pyrimidin-4(1H)-one] | 10 to 100 |
| C[C@@H]1CN(c2ccc(Nc3ncc4c(n3)N(C)CN(c3ccccc3Cl)C4=O)cc2)CCN1 [Example 94, (R)-3-(2-chlorophenyl)-1-methyl-7-((4-(3-methylpiperazin-1-yl)phenyl)amino)-2,3-dihydropyrimido[4,5-d]pyrimidin-4(1H)-one] | 10 to 100 |
| CN1CN(c2ccccc2Cl)C(=O)c2cnc(Nc3ccc(N4CCNCC4)cc3)nc21 [Example 24, 3-(2-Chlorophenyl)-1-methyl-7-((4-(piperazin-1-yl)phenyl)amino)-2,3-dihydropyrimido[4,5-d]pyrimidin-4(1H)-one] | 10 to 100 |
| Cc1cccc(Cl)c1N1CN(C)c2nc(Nc3ccc(N4CCN[C@H](C)C4)cc3)ncc2C1=O [Example 100, (R)-3-(2-chloro-6-methylphenyl)-1-methyl-7-((4-(3-methylpiperazin-1-yl)phenyl)amino)-2,3-dihydropyrimido[4,5-d]pyrimidin-4(1H)-one] | 10 to 100 |
| CN1CN(c2c(Cl)cccc2Cl)C(=O)c2cnc(Nc3ccc(N4CCNC(C(F)(F)F)C4)cc3)nc21 (stereo not drawn) [Example 62, 3-(2,6-dichlorophenyl)-1-methyl-7-((4-(3-(trifluoromethyl)piperazin-1-yl)phenyl)amino)-2,3-dihydropyrimido[4,5-d]pyrimidin-4(1H)-one] | 10 to 100 |
| CN1CN(c2c(Cl)cccc2Cl)C(=O)c2cnc(Nc3ccc(N4CCN(C)C(C(F)(F)F)C4)cc3)nc21 (stereo not drawn) [Example 68, 3-(2,6-dichlorophenyl)-1-methyl-7-((4-(4-methyl-3-(trifluoromethyl)piperazin-1-yl)phenyl)amino)-2,3-dihydropyrimido[4,5-d]pyrimidin-4(1H)-one] | ≥ 100 |
| CN1CN(c2c(F)cccc2Cl)C(=O)c2cnc(Nc3ccc(N4C[C@@H]5C[C@H]4CN5)cc3)nc21 [Example 54, 7-((4-((1S,4S)-2,5-diazabicyclo[2.2.1]heptan-2-yl)phenyl)amino)-3-(2-chloro-6-fluorophenyl)-1-methyl-2,3-dihydropyrimido[4,5-d]pyrimidin-4(1H)-one] | 10 to 100 |

More lines, now with the values ahead:

| IC50 [nM] | Compound |
| --- | --- |
| 10 to 100 | CN1CN(c2c(Cl)cccc2Cl)C(=O)c2cnc(Nc3ccc4c(c3)C3CCC(C4)N3)nc21 (stereo not drawn) [Example 70, 3-(2,6-dichlorophenyl)-1-methyl-7-((6,7,8,9-tetrahydro-5H-5,8-epiminobenzo[7]annulen-3-yl)amino)-2,3-dihydropyrimido[4,5-d]pyrimidin-4(1H)-one] |
| 10 to 100 | C[C@@H]1CN[C@@H](C)CN1c1ccc(Nc2ncc3c(n2)N(C)CN(c2c(F)cccc2Cl)C3=O)cc1 [Example 93, 3-(2-chloro-6-fluorophenyl)-7-((4-((2R,5S)-2,5-dimethylpiperazin-1-yl)phenyl)amino)-1-methyl-2,3-dihydropyrimido[4,5-d]pyrimidin-4(1H)-one] |
| 10 to 100 | C[C@@H]1CN[C@@H](C)CN1c1ccc(Nc2ncc3c(n2)N(C)CN(c2ccccc2Cl)C3=O)cc1 [Example 98, 3-(2-chlorophenyl)-7-((4-((2R,5S)-2,5-dimethylpiperazin-1-yl)phenyl)amino)-1-methyl-2,3-dihydropyrimido[4,5-d]pyrimidin-4(1H)-one] |
| 10 to 100 | CN1CN(c2ccccc2Cl)C(=O)c2cnc(Nc3ccc(N4CCNC5(CC5)C4)cc3)nc21 [Example 105, 7-((4-(4,7-diazaspiro[2.5]octan-7-yl)phenyl)amino)-3-(2-chlorophenyl)-1-methyl-2,3-dihydropyrimido[4,5-d]pyrimidin-4(1H)-one] |
| 10 to 100 | C[C@@H]1CN(C)[C@@H](C)CN1c1ccc(Nc2ncc3c(n2)N(C)CN(c2c(Cl)cccc2Cl)C3=O)cc1 [Example 45, 3-(2,6-dichlorophenyl)-1-methyl-7-((4-((2R,5S)-2,4,5-trimethylpiperazin-1-yl)phenyl)amino)-2,3-dihydropyrimido[4,5-d]pyrimidin-4(1H)-one] |
| 10 to 100 | CN1CN(c2c(Cl)cccc2Cl)C(=O)c2cnc(Nc3ccc(N4CCN(C)[C@H](CO)C4)c(F)c3)nc21 [Example 50, (S)-3-(2,6-dichlorophenyl)-7-((3-fluoro-4-(3-(hydroxymethyl)-4-methylpiperazin-1-yl)phenyl)amino)-1-methyl-2,3-dihydropyrimido[4,5-d]pyrimidin-4(1H)-one] |
| 10 to 100 | CN1CN(c2c(Cl)cccc2Cl)C(=O)c2cnc(Nc3ccc(N4CC5(CNC5)C4)cc3)nc21 [Example 51, 7-((4-(2,6-diazaspiro[3.3]heptan-2-yl)phenyl)amino)-3-(2,6-dichlorophenyl)-1-methyl-2,3-dihydropyrimido[4,5-d]pyrimidin-4(1H)-one] |
| 10 to 100 | C[C@@H]1CN(c2ccc(Nc3ncc4c(n3)N(C3CC3)CN(c3c(Cl)cccc3Cl)C4=O)cc2)CCN1 [Example 85, (R)-1-cyclopropyl-3-(2,6-dichlorophenyl)-7-((4-(3-methylpiperazin-1-yl)phenyl)amino)-2,3-dihydropyrimido[4,5-d]pyrimidin-4(1H)-one] |
| 10 to 100 | C[C@@H]1CN(c2ccc(Nc3ncc4c(n3)N(C)CN(c3ccccc3Cl)C4=O)cc2F)CCN1 [Example 99, (R)-3-(2-chlorophenyl)-7-((3-fluoro-4-(3-methylpiperazin-1-yl)phenyl)amino)-1-methyl-2,3-dihydropyrimido[4,5-d]pyrimidin-4(1H)-one] |
| 10 to 100 | COc1cc(Nc2ncc3c(n2)N(C)CN(c2ccccc2Cl)C3=O)ccc1N1C[C@@H]2C[C@H]1CN2 [Example 107, 7-((4-((1S,4S)-2,5-diazabicyclo[2.2.1]heptan-2-yl)-3-methoxyphenyl)amino)-3-(2-chlorophenyl)-1-methyl-2,3-dihydropyrimido[4,5-d]pyrimidin-4(1H)-one] |
| 10 to 100 | CC(=O)N1CCN(c2ccc(Nc3ncc4c(n3)N(C)CN(c3c(Cl)cccc3Cl)C4=O)cc2)CC1 [Example 125, 7-((4-(4-acetylpiperazin-1-yl)phenyl)amino)-3-(2,6-dichlorophenyl)-1-methyl-2,3-dihydropyrimido[4,5-d]pyrimidin-4(1H)-one] |
| 10 to 100 | CN1CN(c2c(F)cccc2Cl)C(=O)c2cnc(Nc3ccc(N4CCOCC4)c(CO)c3)nc21 [Example 57] |
| 10 to 100 | C[C@@H]1CN[C@@H](C)CN1c1ccc(Nc2ncc3c(n2)N(C)CN(c2c(Cl)cccc2Cl)C3=O)cc1F [Example 81, 3-(2,6-dichlorophenyl)-7-((4-((2R,5S)-2,5-dimethylpiperazin-1-yl)-3-fluorophenyl)amino)-1-methyl-2,3-dihydropyrimido[4,5-d]pyrimidin-4(1H)-one] |
| 10 to 100 | COC[C@H]1CN(c2ccc(Nc3ncc4c(n3)N(C)CN(c3c(Cl)cccc3Cl)C4=O)cc2)CCN1C [Example 65, (R)-3-(2,6-dichlorophenyl)-7-((4-(3-(methoxymethyl)-4-methylpiperazin-1-yl)phenyl)amino)-1-methyl-2,3-dihydropyrimido[4,5-d]pyrimidin-4(1H)-one] |
| 10 to 100 | C[C@@H]1CN(c2ccc(Nc3ncc4c(n3)N(C)CN(c3c(Cl)cccc3Cl)C4=O)cc2)C[C@H](C)N1C [Example 52, 3-(2,6-dichlorophenyl)-1-methyl-7-((4-((3R,5S)-3,4,5-trimethylpiperazin-1-yl)phenyl)amino)-2,3-dihydropyrimido[4,5-d]pyrimidin-4(1H)-one] |
| 10 to 100 | COc1cc(Nc2ncc3c(n2)N(C)CN(c2c(Cl)cccc2Cl)C3=O)ccc1N1C[C@@H]2C[C@H]1CN2 [Example 82, 7-((4-((1S,4S)-2,5-diazabicyclo[2.2.1]heptan-2-yl)-3-methoxyphenyl)amino)-3-(2,6-dichlorophenyl)-1-methyl-2,3-dihydropyrimido[4,5-d]pyrimidin-4(1H)-one] |
